From PubChem BioAssay (NCI)
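Assay format: 96-well plates, 48-hour exposure. GI50 marks 50% less growth. TGI is the concentration that stops growth completely.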

What was measured:
Experiment in all cases: DTP human tumour cell line panel, 48 h
[1] = tested on: 786-0 renal
[2] = tested on: A498 renal
[3] = tested on: A549 NSCLC
[4] = tested on: ACHN renal
[5] = tested on: CAKI-1 renal
[6] = tested on: CCRF-CEM leukemia
[7] = tested on: COLO 205 colon
[8] = tested on: DU-145 prostate
[9] = tested on: EKVX NSCLC
[10] = tested on: HCC-2998 colon
[11] = tested on: HCT-116 colon
[12] = tested on: HCT-15 colon
[13] = tested on: HL-60(TB) leukemia
[14] = tested on: HOP-62 NSCLC
[15] = tested on: HOP-92 NSCLC
[16] = tested on: HS 578T breast
[17] = tested on: HT29 colon
[18] = tested on: IGROV1 ovarian
[19] = tested on: K-562 leukemia
[20] = tested on: KM12 colon
[21] = tested on: LOX IMVI melanoma
[22] = tested on: M14 melanoma
[23] = tested on: MALME-3M melanoma
[24] = tested on: MCF7 breast
[25] = tested on: MDA-MB-231 breast
[26] = tested on: MDA-MB-435
[27] = tested on: MDA-N
[28] = tested on: MOLT-4 leukemia
[29] = tested on: NCI-H226 lung
[30] = tested on: NCI-H23 lung
[31] = tested on: NCI-H460 lung
[32] = tested on: NCI/ADR-RES ovarian
[33] = tested on: OVCAR-3 ovarian
[34] = tested on: OVCAR-4 ovarian
[35] = tested on: OVCAR-5 ovarian
[36] = tested on: OVCAR-8 ovarian
[37] = tested on: PC-3 prostate
[38] = tested on: RPMI-8226 leukemia
[39] = tested on: RXF 393 renal
[40] = tested on: SF-268 CNS
[41] = tested on: SF-295 CNS
[42] = tested on: SF-539 CNS
[43] = tested on: SK-MEL-28 melanoma
[44] = tested on: SK-MEL-5 melanoma
[45] = tested on: SK-OV-3 ovarian
[46] = tested on: SN12C renal
[47] = tested on: SNB-19 CNS
[48] = tested on: SNB-75 CNS
[49] = tested on: SW-620 colon
[50] = tested on: T-47D breast
[51] = tested on: TK-10 renal
[52] = tested on: U251 CNS
[53] = tested on: UACC-257 melanoma
[54] = tested on: UACC-62 melanoma
[55] = tested on: UO-31 renal
[56] = tested on: BT-549 breast
[57] = tested on: SK-MEL-2 melanoma

S=C(S)NCCNC(=S)S.[Cu+2]
GI50 [1]: 63.2 µM | TGI [1]: > 100 µM | GI50 [2]: 57.6 µM | TGI [2]: > 100 µM | GI50 [3]: 56.6 µM | TGI [3]: > 100 µM | GI50 [4]: > 100 µM | TGI [4]: > 100 µM | GI50 [5]: > 100 µM | TGI [5]: > 100 µM | GI50 [6]: > 100 µM | TGI [6]: > 100 µM | GI50 [7]: > 100 µM | TGI [7]: > 100 µM | GI50 [8]: > 100 µM | TGI [8]: > 100 µM | GI50 [9]: 70.1 µM | TGI [9]: > 100 µM | GI50 [10]: 59.3 µM | TGI [10]: > 100 µM | GI50 [11]: > 100 µM | TGI [11]: > 100 µM | GI50 [12]: 51.6 µM | TGI [12]: > 100 µM | GI50 [13]: > 100 µM | TGI [13]: > 100 µM | GI50 [14]: 68.6 µM | TGI [14]: > 100 µM | GI50 [15]: > 100 µM | TGI [15]: > 100 µM | GI50 [16]: > 100 µM | TGI [16]: > 100 µM | GI50 [17]: > 100 µM | TGI [17]: > 100 µM | GI50 [18]: 93.2 µM | TGI [18]: > 100 µM | GI50 [19]: > 100 µM | TGI [19]: > 100 µM | GI50 [20]: > 100 µM | TGI [20]: > 100 µM | GI50 [21]: 31.8 µM | TGI [21]: > 100 µM | GI50 [22]: > 100 µM | TGI [22]: > 100 µM | GI50 [23]: > 100 µM | TGI [23]: > 100 µM | GI50 [24]: 27.4 µM | TGI [24]: 78.2 µM | GI50 [25]: > 100 µM | TGI [25]: > 100 µM | GI50 [26]: 29.7 µM | TGI [26]: 79.2 µM | GI50 [27]: 25.7 µM | TGI [27]: 69.5 µM | GI50 [28]: > 100 µM | TGI [28]: > 100 µM | GI50 [29]: > 100 µM | TGI [29]: > 100 µM | GI50 [30]: > 100 µM | TGI [30]: > 100 µM | GI50 [31]: 29.7 µM | TGI [31]: 89.3 µM | GI50 [32]: > 100 µM | TGI [32]: > 100 µM | GI50 [33]: > 100 µM | TGI [33]: > 100 µM | GI50 [34]: 36.1 µM | TGI [34]: > 100 µM | GI50 [35]: 52.4 µM | TGI [35]: > 100 µM | GI50 [36]: > 100 µM | TGI [36]: > 100 µM | GI50 [37]: > 100 µM | TGI [37]: > 100 µM | GI50 [38]: > 100 µM | TGI [38]: > 100 µM | GI50 [39]: 36.1 µM | TGI [39]: > 100 µM | GI50 [40]: > 100 µM | TGI [40]: > 100 µM | GI50 [41]: > 100 µM | TGI [41]: > 100 µM | GI50 [42]: > 100 µM | TGI [42]: > 100 µM | GI50 [43]: > 100 µM | TGI [43]: > 100 µM | GI50 [44]: 25.8 µM | TGI [44]: 58.5 µM | GI50 [45]: 8.24 µM | TGI [45]: 23.1 µM | GI50 [46]: > 100 µM | TGI [46]: > 100 µM | GI50 [47]: > 100 µM | TGI [47]: > 100 µM | GI50 [48]: > 100 µM | TGI [48]: > 100 µM | GI50 [49]: 88.6 µM | TGI [49]: > 100 µM | GI50 [50]: > 100 µM | TGI [50]: > 100 µM | GI50 [51]: > 100 µM | TGI [51]: > 100 µM | GI50 [52]: > 100 µM | TGI [52]: > 100 µM | GI50 [53]: > 100 µM | TGI [53]: > 100 µM | GI50 [54]: 33.9 µM | TGI [54]: > 100 µM | GI50 [55]: > 100 µM | TGI [55]: > 100 µM

COc1ccccc1N1C(=O)CSC1c1c[nH]c2ccccc12 (configuration not stated)
TGI [1]: > 100 µM | TGI [2]: > 100 µM | TGI [3]: > 100 µM | TGI [4]: > 100 µM | TGI [56]: > 100 µM | TGI [7]: > 100 µM | TGI [8]: > 100 µM | TGI [9]: > 100 µM | TGI [10]: > 100 µM | TGI [11]: > 100 µM | TGI [12]: > 100 µM | TGI [13]: > 100 µM | TGI [14]: > 100 µM | TGI [15]: > 100 µM | TGI [16]: > 100 µM | TGI [17]: > 100 µM | TGI [18]: > 100 µM | TGI [19]: > 100 µM | TGI [20]: > 100 µM | TGI [22]: > 100 µM | TGI [24]: > 100 µM | TGI [25]: > 100 µM | TGI [26]: > 100 µM | TGI [27]: > 100 µM | TGI [28]: > 100 µM | TGI [29]: > 100 µM | TGI [30]: > 100 µM | TGI [31]: > 100 µM | TGI [32]: > 100 µM | TGI [33]: > 100 µM | TGI [34]: > 100 µM | TGI [35]: > 100 µM | TGI [36]: > 100 µM | TGI [38]: > 100 µM | TGI [39]: > 100 µM | TGI [40]: > 100 µM | TGI [41]: > 100 µM | TGI [42]: > 100 µM | TGI [57]: > 100 µM | TGI [43]: > 100 µM | TGI [44]: > 100 µM | TGI [45]: > 100 µM | TGI [46]: > 100 µM | TGI [47]: > 100 µM | TGI [48]: > 100 µM | TGI [49]: > 100 µM | TGI [50]: > 100 µM | TGI [51]: > 100 µM | TGI [52]: > 100 µM | TGI [53]: > 100 µM | TGI [54]: > 100 µM | TGI [55]: > 100 µM
